Literature values in publication PMC7599555 (Biomedicines, 2020).

Test system: TTX-sensitive channels; NaV1.8

NC1=N[C@H](O)[C@H]2[C@H]3O[C@]4(O)O[C@@H]([C@@H](O)[C@@]2(N1)[C@@H]4O)[C@]3(O)CO [TTX, tetrodotoxin]
inhibition of TTX-sensitive channels and NaV1.8: fully inhibits TTX-sensitive channels but not NaV1.8
